Cell toxicity and PKN1 ubiquitination data for two molecules are collected here from article PMC12584752, “Covalent fragment screening to inhibit the E3 ligase activity of bacterial NEL enzymes SspH1 and SspH2” (RSC Chemical Biology, 2025).

Molecules are shown by their SMILES.

In one data set the test system is HEK293T cells. In words: Cell toxicity observed during in-cell treatment. The data set is classed as cell-based, human. The following applies: 50 μM, four hours. As to the method:
We next interrogated whether compounds 6 or 7 could engage SspH1 or SspH2 in live human cells. To simplify experimental setup, we opted for NEL overexpression in mammalian cells, coupled with chemoproteomics, over a Salmonella infection-based assay. SspH1 or SspH2 were transiently expressed in HEK293T cells (Fig. S6), and cells treated with 50 μM of either compound 6 or 7 for four hours. […] Following cell lysis, we again utilized an IA-DTB chemoproteomics workflow to assess cysteine engagement.[52] Peptides engaging with compound 6 were identified with an average log2 CR ≤ −1 and P-value ≤0.05 when compared to DMSO controls (Fig. 5C and D). […] However, none of these included catalytic cysteines-containing peptides of HECT or RBR E3 ligases, nor of DUBs. Therefore, compound 6 provides a useful starting point for medicinal chemistry campaigns to design potent and specific tool compounds for SspH1 and SspH2.
All cells were grown in DMEM media (Gibco, 41966-029) supplemented with FBS (ThermoFisher, A5256701) and Pen/Strep (Gibco, 15140-122) at 37 °C with 5% CO2. SspH1 (aa 1–700) and SspH2 (aa 1–786) genes were cloned separately into […] plasmids. HEK293T cells were seeded in 6-well plates at a density of 2 × 10^5 cells per well. […] Protein concentrations were measured using a Rapid BCA Gold Protein Assay Kit (Thermo Scientific, A53226) and diluted to 1 mg mL^−1 with lysis buffer. […]

Another data set concerns the target SspH1 (161–700) (Salmonella typhimurium, UniProt D0ZVG2). In words: Substrate (PKN1) ubiquitination assay. The data set is classed as biochemical. More on the design: SspH1 (5 μM, 161–700) was prelabelled at 350 rpm, RT for 18 hours; His-tag (N, cleaved yes); made in house; host or cells: E. coli BL21. The settings on record: SspH1 pre-labelled with compound overnight at RT; 0–30 minutes. As to the method: Fig. 4 SspH1 in vitro inhibition with compounds 6 and 7. (A) Discharge assay schematic; (B) E2–Ub discharge time course assay with SspH1 pre-treated with either DMSO or compounds 6 or 7. UbcH5A–Ub-cy3 (1 μM) was incubated at RT for 0–30 minutes with SspH1 (residues 161–700, 50 nM) which had been pre-labelled with 6 or 7 at RT overnight. (C) Substrate ubiquitination assay schematic; (D) PKN1 ubiquitination time course assay with SspH1 pre-treated with either DMSO or compounds 6 or 7. A reaction of UBA1 (0.1 μM), UbcH5A (2 μM), ubiquitin (20 μM), PKN1 HR1b (2 μM, residues 122–199) and 10 mM ATP was incubated at RT for 0–30 minutes with SspH1 (residues 161–700, 0.5 μM) which had been pre-labelled with 6 or 7 at RT overnight.
Alternatively, substrate ubiquitination can be followed in vitro using a reconstituted ubiquitin enzymatic cascade, where recombinant ubiquitin, E1, E2, E3 and substrate are incubated with ATP (Fig. 4C). With SspH1, E3 ligase activity can then be observed by ubiquitination of its substrate PKN1.[25] This assay represents a higher order of complexity and involves three enzymes with catalytic cysteines (E1, E2 and E3) and is closer to in situ E3 activity. We compared SspH1 ubiquitination activity when SspH1 was pre-treated with DMSO or compound 6 or 7 (Fig. 4D), again overnight at room temperature to ensure complete labelling. […]

Chain of SspH1 (161–700) (D0ZVG2 161-700): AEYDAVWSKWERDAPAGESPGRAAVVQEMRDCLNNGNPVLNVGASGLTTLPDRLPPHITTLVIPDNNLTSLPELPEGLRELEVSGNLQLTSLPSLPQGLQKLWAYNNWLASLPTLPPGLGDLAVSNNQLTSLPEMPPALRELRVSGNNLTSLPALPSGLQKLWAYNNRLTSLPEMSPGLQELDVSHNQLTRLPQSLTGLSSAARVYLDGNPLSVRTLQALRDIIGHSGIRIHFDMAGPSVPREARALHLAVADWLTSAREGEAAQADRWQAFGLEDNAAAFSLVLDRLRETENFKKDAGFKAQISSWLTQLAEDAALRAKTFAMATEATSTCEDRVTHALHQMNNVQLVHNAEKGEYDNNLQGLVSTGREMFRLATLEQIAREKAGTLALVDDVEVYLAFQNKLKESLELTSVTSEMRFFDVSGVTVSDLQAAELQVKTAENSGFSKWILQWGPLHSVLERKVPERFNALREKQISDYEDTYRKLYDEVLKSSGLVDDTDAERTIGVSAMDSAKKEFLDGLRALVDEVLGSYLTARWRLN

For `Cc1cc(-c2nc3ccccc3n2C2CCN(C(=O)CCl)CC2)cc(C)c1O.Cl` [compound 6], the cell toxicity result in the data set with HEK293T cells is listed as “no apparent cell toxicity”. The PKN1 ubiquitination result on SspH1 (161–700) is recorded as “completely abrogated”.

In the case of `Cl.O=C(CCl)N1CCC(n2c(-c3ccc(C(F)(F)F)cc3)nc3ccccc32)CC1` [compound 7], the cell toxicity entry in the data set on HEK293T cells was “significant effects on cell attachment and potential toxicity”. For the same molecule, the PKN1 ubiquitination result at SspH1 (161–700) is “completely abrogated”.
